The record followed here is ChEMBL document CHEMBL1201862, “PubChem BioAssay data set” (2004).

Structures are written as SMILES.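 Method: 48-hour compound exposure of cells in 96-well plates, five concentrations, linear interpolation of endpoints. GI50: concentration for 50% inhibition of growth.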 Calls of active or inactive are those of the source. Cut-off read from the data, not from the text of the source: active = GI50 up to about 1.1 µM and inactive = higher. Bounds are passed on as bounds.

What all share (test): NCI anticancer screen, dose series, 48 h
The subject of assay [1] is Hs-578T.
In assay [2] the test system is OVCAR-5.
In assay [3] the test system is OVCAR-4.
The test system of assay [4] is HCC 2998.
The test system of assay [5] is U-251.
Assay [6] deals with MDA-MB-435.
Assay [7] concerns MOLT-4.
Assay [8] has as its system HOP-62.
Assay [9] concerns SK-OV-3.
Assay [10] concerns MDA-N.
Assay [11] concerns 786-0.
In assay [12] the test system is SR.
Assay [13] has as its system NCI-H460.
Assay [14] has as its system NCI-H23.
The subject of assay [15] is SNB-19.
The subject of assay [16] is PC-3.
Assay [17] deals with NCI/ADR-RES.
Assay [18] concerns UACC-257.
The test system of assay [19] is MCF7.
Assay [20] concerns NCI-H226.

`c1ccc2c(c1)nc1n2CNC1`: the GI50 in [1], in [2], in assay [3], in assay [4], in assay [5] and in assay [6] was > 100 µM (inactive) throughout. Further, the GI50 in [7], in [8], in [9], in assay [10], in [11] and in [12] was > 100 µM (inactive) each time. Moreover, the GI50 was 54.6 µM (inactive) in [13]; > 100 µM (inactive) in assay [14]; > 100 µM (inactive) in [15]; > 100 µM (inactive) in assay [16]; > 100 µM (inactive) in assay [17]; > 100 µM (inactive) in assay [18]. Further, the GI50 in assay [19] is > 100 µM (inactive).
Take `NC(Cc1ccccc1)c1nn[nH]n1` (stereo unspecified): the GI50 was > 100 µM (inactive) in assay [1]; > 100 µM (inactive) in assay [2]; > 100 µM (inactive) in [3]; > 100 µM (inactive) in assay [5]; > 100 µM (inactive) in assay [6]; < 0.01 µM (active) in assay [7]. The GI50 in [20], in [8], in assay [9], in assay [10], in [11] and in assay [12] was > 100 µM (inactive) in each case. Besides, the GI50 in assay [13], in assay [14], in assay [15], in [16], in [17] and in assay [18] was > 100 µM (inactive) in each case. Further, the GI50 in assay [19] was > 100 µM (inactive).
`O=[N+]([O-])c1cc2ccc1OCc1cccc(n1)COc1ccc(cc1[N+](=O)[O-])/C=N\CCCCCCCC/N=C\2`: the GI50 in [1], in assay [2], in [3], in [4], in assay [5] and in assay [6] was > 100 µM (inactive) throughout. Besides, the GI50 in assay [7], in assay [20], in [8], in assay [10], in assay [11] and in [12] was > 100 µM (inactive) in each case. Also, the GI50 in assay [13], in [14], in assay [15], in assay [16], in [17] and in [18] was > 100 µM (inactive) each time. For the same compound, the GI50 in assay [19] was > 100 µM (inactive).
Take `O=C1CSC(c2ccccc2O)N1c1ccc(-c2ccc(-n3c(-c4ccccc4)nc4ccccc4c3=O)cc2)cc1` (stereo unspecified): the GI50 is 40.1 µM (inactive) in assay [1]; 43.1 µM (inactive) in assay [2]; 31 µM (inactive) in [3]; 33.7 µM (inactive) in [5]; 33.5 µM (inactive) in assay [6]; 25.4 µM (inactive) in [7]. For the same compound, the GI50 was 37.6 µM (inactive) in assay [20]; 39.6 µM (inactive) in assay [8]; 64.1 µM (inactive) in [9]; 35.5 µM (inactive) in assay [10]; 18.7 µM (inactive) in assay [11]; 54.3 µM (inactive) in assay [12]. The GI50 is 35.7 µM (inactive) in assay [13]; 43.9 µM (inactive) in [14]; 50.6 µM (inactive) in assay [15]; 27.7 µM (inactive) in [16]; 30.1 µM (inactive) in assay [17]; 50.1 µM (inactive) in assay [18]. For the same compound, the GI50 in assay [19] was 28.1 µM (inactive).
As for `O=C(N/S(=N/S(=O)(=O)c1ccc(Br)cc1)C(Cl)(Cl)Cl)c1ccccc1` (stereo unspecified), the GI50 in assay [1], in assay [2], in assay [3], in assay [5], in assay [6] and in assay [7] was > 100 µM (inactive) each time. For the same compound, the GI50 was > 100 µM (inactive) in assay [20]; > 100 µM (inactive) in assay [8]; > 100 µM (inactive) in assay [9]; > 100 µM (inactive) in [10]; > 100 µM (inactive) in assay [11]; 70 µM (inactive) in assay [12]. In addition, the GI50 in assay [13], in assay [14], in [15], in assay [16], in [17] and in assay [18] was > 100 µM (inactive) throughout. Moreover, the GI50 in [19] was > 100 µM (inactive).
On to `CC1=C(/C=C/C(=O)O)C(C)(C)CCC1`, for which the GI50 in assay [1], in assay [2], in assay [3], in assay [4], in assay [5] and in assay [6] was > 100 µM (inactive) throughout. The GI50 in assay [20], in assay [8], in assay [9], in assay [10], in [11] and in [12] was > 100 µM (inactive) throughout. Moreover, the GI50 in [13], in [14], in assay [15], in assay [16], in assay [17] and in [18] was > 100 µM (inactive) in each case. In [19], the GI50 is > 100 µM (inactive).
Regarding `Cc1nn(C(=O)c2ccccc2O)c2c1C(c1ccc(O)cc1)SC(=N)N2` (stereo unspecified), the GI50 in [1] was 0.449 µM (active); in assay [2] it was > 6.35 µM (inactive); in assay [3] it was > 2.12 µM (inactive); in assay [4], > 8.91 µM (inactive); in assay [5], 1.37 µM (inactive); in [6], 1.21 µM (inactive). Besides, the GI50 was 1.33 µM (inactive) in [7]; 2.25 µM (inactive) in assay [9]; 1.67 µM (inactive) in assay [10]; > 2.56 µM (inactive) in assay [11]; 1.44 µM (inactive) in assay [12]; 0.359 µM (active) in assay [13]. Also, the GI50 in assay [14] is 1.83 µM (inactive); in [15], 8.41 µM (inactive); in assay [16], > 3.03 µM (inactive); in assay [17], 2.03 µM (inactive); in assay [18] it was 0.805 µM (active); in [19], > 2.36 µM (inactive).
`CC1CCc2sc3nc4n(c(=O)c3c2C1)CC(C)S4` (stereo unspecified): the GI50 is 39.9 µM (inactive) in [1]; 27 µM (inactive) in assay [2]; 25.5 µM (inactive) in assay [3]; 19.7 µM (inactive) in [4]; 25.6 µM (inactive) in assay [5]; 34.4 µM (inactive) in assay [6]. The GI50 in assay [20] was 21.8 µM (inactive); in [8], 32.7 µM (inactive); in [9] it was 29.7 µM (inactive); in assay [10], 28.4 µM (inactive); in assay [11] it was 23.1 µM (inactive); in [12] it was 26.2 µM (inactive). Moreover, the GI50 in [13] is 22.5 µM (inactive); in assay [14], 25.3 µM (inactive); in assay [15], 27.7 µM (inactive); in assay [16], 22.5 µM (inactive); in assay [17] it was 30.8 µM (inactive); in assay [18], 20.2 µM (inactive). In [19], the GI50 is 24 µM (inactive).
On to `N#CCCC1(CCC#N)S(=O)(=O)OCCOS1(=O)=O`, for which the GI50 in assay [1] is 18.2 µM (inactive); in [2], > 100 µM (inactive); in [3], 20.7 µM (inactive); in assay [5], 24.7 µM (inactive); in assay [6] it was 47.6 µM (inactive); in assay [7], 24.7 µM (inactive). Also, the GI50 in [20] is 41.5 µM (inactive); in [8], < 0.01 µM (active); in assay [9], 51.3 µM (inactive); in [10], 54.3 µM (inactive); in assay [11], 21.6 µM (inactive); in [12] it was 29.6 µM (inactive). Besides, the GI50 in assay [14] was 36.1 µM (inactive); in assay [15], 48.8 µM (inactive); in [16], 63.4 µM (inactive); in [17] it was 19.2 µM (inactive); in assay [18], > 100 µM (inactive); in assay [19], 34.2 µM (inactive).
Consider `Cc1c(-c2ccccc2)c(C#N)c2nnn(-c3ccc([N+](=O)[O-])cc3)c(=O)n12`, for which the GI50 in [1] is 14.1 µM (inactive); in assay [2], 27.4 µM (inactive); in assay [3], 10.4 µM (inactive); in [4], 26.6 µM (inactive); in assay [5] it was 9.93 µM (inactive); in assay [6] it was 24.8 µM (inactive). Moreover, the GI50 is 13.2 µM (inactive) in assay [20]; 13.6 µM (inactive) in assay [8]; 23.4 µM (inactive) in assay [9]; 40.6 µM (inactive) in assay [10]; 5.14 µM (inactive) in [11]; 7.31 µM (inactive) in assay [12]. In addition, the GI50 was 22.5 µM (inactive) in [13]; 21.3 µM (inactive) in [14]; 3.48 µM (inactive) in assay [16]; 15.9 µM (inactive) in assay [17]; > 100 µM (inactive) in assay [18]; 16.2 µM (inactive) in assay [19].
With `OCCn1cnc2c(SCc3ccccc3)ncnc21`, the GI50 in assay [1] is 69.7 µM (inactive); in assay [2], > 100 µM (inactive); in [3] it was > 100 µM (inactive); in [4], > 100 µM (inactive); in assay [5], 52.4 µM (inactive); in [6] it was > 100 µM (inactive). The GI50 in assay [20] was > 100 µM (inactive); in [8] it was > 100 µM (inactive); in assay [9], > 100 µM (inactive); in assay [10] it was > 100 µM (inactive); in [11], > 100 µM (inactive); in [12], 19.5 µM (inactive). Further, the GI50 in assay [13] is 19.6 µM (inactive); in [14], > 100 µM (inactive); in [15], > 100 µM (inactive); in assay [16], 61 µM (inactive); in assay [17], > 100 µM (inactive); in [18], > 100 µM (inactive). In addition, in [19], the GI50 is > 100 µM (inactive).
